Here are results for 28 compounds from patent publication US9981916B2 (Genentech, Inc., priority 2013, dated 2018).

The target in the experiment is T1, RORc ligand binding domain (Homo sapiens, UniProt P51449).
T1 construct: host or cells: E. coli
T1 sequence (P51449 269-508 limits assumed): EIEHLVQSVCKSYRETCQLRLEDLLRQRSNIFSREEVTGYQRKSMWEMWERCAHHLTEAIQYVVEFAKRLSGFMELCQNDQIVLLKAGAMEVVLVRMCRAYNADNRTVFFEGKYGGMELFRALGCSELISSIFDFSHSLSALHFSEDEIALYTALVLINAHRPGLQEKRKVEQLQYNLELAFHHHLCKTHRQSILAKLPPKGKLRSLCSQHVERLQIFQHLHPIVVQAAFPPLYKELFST
The experiment can be described thus: In vitro RORc ligand binding assay (25-[3H]hydroxycholesterol displacement, filter binding). To be noted: 6 nM 25-[3H]hydroxycholesterol, 0.6 ug/mL RORc receptor, 3 h at 25° C. Summed up:
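Filter-binding displacement of 6 nM 25-[3H]hydroxycholesterol from RORc receptor (0.6 ug/mL) in 50 mM HEPES pH 7.4, 150 mM NaCl, 5 mM MgCl2, 1 mM DTT, 0.01% BSA, 5% DMSO; 3 h at 25° C. NSB defined with 1 uM 25-hydroxycholesterol; scintillation counting gave Kiapp, IC50 or % inhibition (screening at 1 and 10 uM).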

A word on the IC50: it is the concentration that inhibits the measured activity by half. The low end stands for greater potency in that assay, the high end for weaker potency in that assay.

On to `Cc1ocnc1[C@]12CC[C@H](c3cc(-c4c(F)cccc4F)nnc31)C2(C)C` [Example 228, 4-((5S,8R)-3-(2,6-difluorophenyl)-9,9-dimethyl-5,6,7,8-tetrahydro-5,8-methanocinnolin-8-yl)-5-methyloxazole], for which the IC50 came out at 137 nM.

In turn, `CC1(C)[C@@H]2CC[C@@]1(N1CCOC1=O)c1nnc(-c3c(F)cccc3F)cc12` [Example 254, 3-((5S,8S)-3-(2,6-difluorophenyl)-9,9-dimethyl-5,6,7,8-tetrahydro-5,8-methanocinnolin-8-yl)oxazolidin-2-one] had a half-inhibitory concentration (IC50) of 866 nM.

The compound `CC(C)CNC(=O)[C@]12CC[C@H](c3cc(-c4ccccc4F)nnc31)C2(C)C` [Example 131, (5S,8S)-3-(2-fluorophenyl)-N-isobutyl-9,9-dimethyl-5,6,7,8-tetrahydro-5,8-methanocinnoline-8-carboxamide] showed an IC50 of 1330 nM.

In turn, `CCN(C[C@@]12CC[C@@H](c3cc(-c4c(F)cccc4F)nnc31)C2(C)C)c1ncccn1` [Example 164, N-(((5R,8S)-3-(2,6-difluorophenyl)-9,9-dimethyl-5,6,7,8-tetrahydro-5,8-methanocinnolin-8-yl)methyl)-N-ethylpyrimidin-2-amine] gave an IC50 of 4 nM.

As for `CN(C(=O)[C@]12CC[C@H](c3cc(-c4c(F)cccc4F)nnc31)C2(C)C)C1CCC1` [Example 70, (5S,8S)-N-cyclobutyl-3-(2,6-difluorophenyl)-N,9,9-trimethyl-6,7-dihydro-5,8-methanocinnoline-8(5H)-carboxamide], the IC50 turned out to be 215 nM.

As to `Cc1nnc([C@@]23CC[C@@H](c4cc(-c5c(F)cccc5F)nnc42)C3(C)C)o1` [Example 67, (5R,8R)-3-(2,6-difluorophenyl)-9,9-dimethyl-8-(5-methyl-1,3,4-oxadiazol-2-yl)-5,6,7,8-tetrahydro-5,8-methanocinnoline], the IC50 amounted to 31 nM.

Compound `CN(C)CC(=O)N[C@@]12CC[C@@H](c3cc(-c4ccccc4F)nnc31)C2(C)C` [Example 89, N-[(5R,8R)-3-(2-fluorophenyl)-9,9-dimethyl-6,7-dihydro-5,8-methanocinnolin-8(5H)-yl]-N~2~,N~2~- dimethylglycinamide] showed an IC50 of 5190 nM.

Take `COCCn1nccc1[C@@]12CC[C@@H](c3cc(-c4c(F)cccc4F)nnc31)C2(C)C` [Example 267, (5R,8S)-3-(2,6-difluorophenyl)-8-(1-(2-methoxyethyl)-1H-pyrazol-5-yl)-9,9-dimethyl-5,6,7,8-tetrahydro-5,8-methanocinnoline]: the IC50 is 339 nM.

For `CC1(C)[C@@H]2CC[C@@]1(C(=O)N1CC[C@H](CO)C1)c1nnc(-c3c(F)cccc3F)cc12` [Example 216, ((5S,8S)-3-(2,6-difluorophenyl)-9,9-dimethyl-5,6,7,8-tetrahydro-5,8-methanocinnolin-8-yl)((S)-3-(hydroxymethyl)pyrrolidin-1-yl)methanone], the IC50 was found to be 830 nM.

In the case of `Cc1nnc(OC[C@@]23CC[C@@H](c4cc(-c5c(F)cccc5F)nnc42)C3(C)C)o1` [Example 143, 2-(((5R,8R)-3-(2,6-difluorophenyl)-9,9-dimethyl-5,6,7,8-tetrahydro-5,8-methanocinnolin-8-yl)methoxy)-5-methyl-1,3,4-oxadiazole], the IC50 turned out to be 286 nM.

Consider `COCC(=O)N[C@@]12CC[C@@H](c3cc(-c4ccccc4F)nnc31)C2(C)C` [Example 83, N-[(5R,8R)-3-(2-fluorophenyl)-9,9-dimethyl-6,7-dihydro-5,8-methanocinnolin-8(5H)-yl]-2-methoxyacetamide], for which the IC50 stood at 1170 nM.

In the case of `CC(=O)NCC(=O)N(CCO)C[C@@]12CC[C@@H](c3cc(-c4c(F)cccc4F)nnc31)C2(C)C` [Example 298, 2-acetamido-N-(((5R,8S)-3-(2,6-difluorophenyl)-9,9-dimethyl-5,6,7,8-tetrahydro-5,8-methanocinnolin-8-yl)methyl)-N-(2-hydroxyethyl)acetamide], the IC50 amounted to 705 nM.

`CC(C)C(=O)N[C@@]12CC[C@@H](c3cc(-c4ccccc4F)nnc31)C2(C)C` [Example 87, N-[(5R,8R)-3-(2-fluorophenyl)-9,9-dimethyl-6,7-dihydro-5,8-methanocinnolin-8(5H)-yl]-2-methylpropanamide] came in with an IC50 of 5190 nM.

In the case of `CCN(C[C@@]12CC[C@@H](c3cc(-c4c(F)cccc4F)nnc31)C2(C)C)S(C)(=O)=O` [Example 156, N-(((5R,8S)-3-(2,6-difluorophenyl)-9,9-dimethyl-5,6,7,8-tetrahydro-5,8-methanocinnolin-8-yl)methyl)-N-ethylmethanesulfonamide], the IC50 worked out at 46 nM.

Regarding `CN(C)C(=O)C1CCN(C(=O)[C@]23CC[C@H](c4cc(-c5c(F)cccc5F)nnc42)C3(C)C)C1` (stereo partly drawn) [Example 211, 1-((5S,8S)-3-(2,6-difluorophenyl)-9,9-dimethyl-5,6,7,8-tetrahydro-5,8-methanocinnoline-8-carbonyl)-N,N-dimethylpyrrolidine-3-carboxamide], the IC50 came to 726 nM.

`Cc1nnc(NC[C@@]23CC[C@@H](c4cc(-c5c(F)cccc5F)nnc42)C3(C)C)o1` [Example 144, N-(((5R,8S)-3-(2,6-difluorophenyl)-9,9-dimethyl-5,6,7,8-tetrahydro-5,8-methanocinnolin-8-yl)methyl)-5-methyl-1,3,4-oxadiazol-2-amine] displayed an IC50 of 1370 nM.

For the compound `Cc1c[nH]nc1C1CN(C(=O)[C@]23CC[C@H](c4cc(-c5ccccc5F)nnc42)C3(C)C)C1` [Example 335, ((5S,8S)-3-(2-fluorophenyl)-9,9-dimethyl-5,6,7,8-tetrahydro-5,8-methanocinnolin-8-yl)(3-(4-methyl-1H-pyrazol-3-yl)azetidin-1-yl)methanone], the IC50 was found to be 2800 nM.

Consider `CC1(C)[C@H]2CC[C@]1(c1ccnn1CCO)c1nnc(-c3c(F)cccc3F)cc12` [Example 269, 2-(5-((5R,8S)-3-(2,6-difluorophenyl)-9,9-dimethyl-5,6,7,8-tetrahydro-5,8-methanocinnolin-8-yl)-1H-pyrazol-1-yl)ethanol], for which the IC50 was determined as 423 nM.

With `CCN(C[C@@]12CC[C@@H](c3cc(-c4c(F)cccc4F)nnc31)C2(C)C)c1cncc(=O)[nH]1` [Example 323, 6-((((5R,8S)-3-(2,6-difluorophenyl)-9,9-dimethyl-5,6,7,8-tetrahydro-5,8-methanocinnolin-8-yl)methyl)(ethyl)amino) pyrazin-2(1H)-one], the IC50 was 12 nM.

Take `CNC(=O)C1CCCN1C(=O)[C@]12CC[C@H](c3cc(-c4c(F)cccc4F)nnc31)C2(C)C` (stereo partly drawn) [Example 243, 1-((5S,8S)-3-(2,6-difluorophenyl)-9,9-dimethyl-5,6,7,8-tetrahydro-5,8-methanocinnoline-8-carbonyl)-N-methylpyrrolidine-2-carboxamide]: the IC50 was found to be 2950 nM.

Consider `CCN(C[C@@]12CC[C@@H](c3cc(-c4c(F)cccc4F)nnc31)C2(C)C)C(=O)N(C)C` [Example 278, 1-(((5R,8S)-3-(2,6-difluorophenyl)-9,9-dimethyl-5,6,7,8-tetrahydro-5,8-methanocinnolin-8-yl)methyl)-1-ethyl-3,3-dimethylurea], for which the IC50 came to 36 nM.

As to `CN(C)[C@@H]1CCN(C(=O)[C@]23CC[C@H](c4cc(-c5c(F)cccc5F)nnc42)C3(C)C)C1` [Example 242, ((5S,8S)-3-(2,6-difluorophenyl)-9,9-dimethyl-5,6,7,8-tetrahydro-5,8-methanocinnolin-8-yl) ((R)-3-(dimethylamino)pyrrolidin-1-yl)methanone], the IC50 amounted to 707 nM.

For the compound `CN(C(=O)[C@]12CC[C@H](c3cc(-c4c(F)cccc4F)nnc31)C2(C)C)c1ccccn1` [Example 265, (5S,8S)-3-(2,6-difluorophenyl)-N,9,9-trimethyl-N-(pyridin-2-yl)-5,6,7,8-tetrahydro-5,8-methanocinnoline-8-carboxamide], the IC50 is 1040 nM.

In turn, `CC1(C)[C@H]2CC[C@]1(C(N)=O)c1nnc(-c3c(F)cccc3F)cc12` [Example 77, (5R,8R)-3-(2,6-difluorophenyl)-9,9-dimethyl-6,7-dihydro-5,8-methanocinnoline-8(5H)-carboxamide] had an IC50 of 1460 nM.

`CC1(C)[C@H]2CC[C@]1(c1nnc(C(F)F)o1)c1nnc(-c3c(F)cccc3F)cc12` [Example 138, 2-(difluoromethyl)-5-((5R,8R)-3-(2,6-difluorophenyl)-9,9-dimethyl-5,6,7,8-tetrahydro-5,8-methanocinnolin-8-yl)-1,3,4-oxadiazole]: the IC50 came to 170 nM.

Consider `CC1(C)[C@H]2CC[C@]1(C(=O)N1CC(OCc3ccccc3)C1)c1nnc(-c3c(F)cccc3F)cc12` [Example 198, (3-(benzyloxy)azetidin-1-yl)((5R,8R)-3-(2,6-difluorophenyl)-9,9-dimethyl-5,6,7,8-tetrahydro-5,8-methanocinnolin-8-yl)methanone], for which the IC50 is 3250 nM.

For `Cn1c([C@@]23CC[C@@H](c4cc(-c5c(F)cccc5F)nnc42)C3(C)C)cccc1=O` [Example 165, 6-((5R,8S)-3-(2,6-difluorophenyl)-9,9-dimethyl-5,6,7,8-tetrahydro-5,8-methanocinnolin-8-yl)-1-methylpyridin-2(1H)-one], the IC50 came to 8 nM.

In the case of `CC1(C)[C@@H]2CC[C@@]1(C(=O)N1CC(F)(F)C1)c1nnc(-c3c(F)cccc3F)cc12` [Example 139, (3,3-difluoroazetidin-1-yl)((5S,8S)-3-(2,6-difluorophenyl)-9,9-dimethyl-5,6,7,8-tetrahydro-5,8-methanocinnolin-8-yl)methanone], the IC50 turned out to be 30 nM.
